The test system of data set [1] is rat. Conditions: Combined chronic toxicity/carcinogenicity, other, Oral, Feed, dose end: 100 week, group: systemic.
For data set [2], the system named is rabbit. The conditions noted are these: Prenatal developmental toxicity study, new zealand white, Oral, Gavage/Intubation, dose end: 19 GD.
Data set [3] relates to dog. Conditions: Chronic toxicity, beagle, Oral, Capsule, dose end: 52 week, group: systemic.
The test system of data set [4] is rat. Conditions: Subchronic oral toxicity in rodents, other, [Not Specified], dose end: 13 week, group: systemic.
In data set [5] the test system is rat. Conditions: Multigenerational reproductive toxicity study, sprague dawley, Oral, Feed, dose end: 2 generation.
The subject of data set [6] is rat. The conditions noted are these: Prenatal developmental toxicity study, sprague dawley, Oral, Gavage/Intubation, dose end: 15 GD.
The subject of data set [7] is mouse. Conditions: Carcinogenicity, cd1, Oral, Feed, dose end: 78 week, group: systemic.
Data set [8] concerns rabbit. The conditions noted are these: Prenatal developmental toxicity study, new zealand white, Oral, Gavage/Intubation, dose end: 18 GD.
The test system of data set [9] is rat. The conditions noted are these: Prenatal developmental toxicity study, sprague dawley, Oral, Gavage/Intubation, dose end: 15 GD. The source holds these as a separate data set.
For data set [10], the system named is rat. The conditions noted are these: Subchronic dermal toxicity, sprague dawley, Topical, dose end: 13 week, group: systemic, systemic / in life observation / body weight / body weight + systemic / in life observation / food consumption / food consumption + systemic….
The test system of data set [11] is rat. Conditions: Prenatal developmental toxicity study; wistar; Oral; Feed; dose end: 21 GD; group: maternal; systemic / in life observation / food consumption / food consumption + systemic / in life observation / water consumption / water ….
For data set [12], the system named is rat. The conditions noted are these: Subchronic oral toxicity in rodents, wistar, Feed, dose end: 90 day, group: systemic.
The subject of data set [13] is dog. Conditions: Chronic toxicity, beagle, Oral, Capsule, dose end: 12 month, group: systemic.
Where [14] appears, read: systemic / pathology gross / adrenal gland / enlarged.
[15] abbreviates: group: developmental, developmental / developmental malformation / bone / irregular ossification + developmental / developmental malformation / bone / misshapen ….
Setting [16] is: group: maternal, systemic / in life observation / body weight / body weight gain + systemic / in life observation / food consumption / food consumption + ….
[17] abbreviates: systemic / clinical chemistry / alanine aminotransferase (alt/sgpt) / alanine aminotransferase (alt/sgpt) + systemic / clinical chemistry / ….
Where [18] appears, read: systemic / in life observation / body weight / body weight gain.
Where [19] appears, read: systemic / urinalysis / ph / ph.
[20] abbreviates: group: offspring, developmental / offspring survival late / viability index / viability index.
Where [21] appears, read: group: offspring, developmental / offspring survival late / viability index / viability index + systemic / in life observation / body weight / offspring (pup….
[22] abbreviates: group: parental, systemic / in life observation / body weight / body weight + systemic / in life observation / mortality / mortality + systemic / pathology ….
The mark [23] stands for this setting: group: reproductive, reproductive / offspring survival early / birth index / live birth index.
[24] abbreviates: group: developmental, developmental / developmental malformation / bone / full supernumerary.
The mark [25] stands for this setting: group: maternal, systemic / in life observation / body weight / body weight gain.
Setting [26] is: systemic / pathology microscopic / liver / vacuolization.
The mark [27] stands for this setting: systemic / pathology microscopic / liver / vacuolization + systemic / in life observation / body weight / body weight gain + systemic / ….
Where [28] appears, read: group: developmental, developmental / developmental malformation / general / [other].
The mark [29] stands for this setting: group: maternal, reproductive / reproductive performance / postimplantation loss / postimplantation loss + systemic / in life observation / food consumption….
Setting [30] is: group: developmental, developmental / developmental malformation / bone / fused.
Where [31] appears, read: group: developmental, developmental / developmental malformation / bone / fused + developmental / developmental malformation / bone / [other] + developmental / ….
The mark [32] stands for this setting: group: maternal, systemic / in life observation / body weight / body weight gain + systemic / in life observation / clinical signs / salivation + ….
Setting [33] is: systemic / in life observation / body weight / body weight gain + systemic / in life observation / food consumption / food consumption + ….
[34] abbreviates: systemic / in life observation / clinical signs / abnormal gait + systemic / in life observation / clinical signs / ataxia + systemic / in ….
Setting [35] is: systemic / in life observation / clinical signs / abnormal gait + systemic / in life observation / clinical signs / convulsions.

Turning to `CC1(C)CC/C(=C\c2ccc(Cl)cc2)C1(O)Cn1cncn1` (stereo unspecified) [Triticonazole], the LEL in [1] (setting [14]) stood at 0.2 mg/kg/day; in data set [2] (setting [15]), 75 mg/kg/day; in data set [2] (setting [16]) it was 50 mg/kg/day; in [3] (setting [18]) it was 2.5 mg/kg/day; in [4] (setting [19]), 2.2 mg/kg/day; in data set [5] (setting [20]), 0.25 mg/kg/day. Further, the LEL in [5] (group: parental, systemic / organ weight / adrenal gland / absolute) was 37.5 mg/kg/day; in data set [5] (setting [23]), 0.25 mg/kg/day; in data set [6] (setting [24]) it was 1000 mg/kg/day; in [6] (setting [25]), 1000 mg/kg/day; in [7] (setting [27]), 202 mg/kg/day. The NEL in [1] (setting [14]) was below 0.2 mg/kg/day; in data set [2] (setting [15]) it was 50 mg/kg/day; in [2] (setting [16]), 25 mg/kg/day; in [3] (setting [18]), below 2.5 mg/kg/day; in data set [4] (setting [19]), below 2.2 mg/kg/day; in data set [5] (setting [20]) it was below 0.25 mg/kg/day. The NEL in data set [5] (group: parental, systemic / in life observation / body weight / body weight + systemic / pathology microscopic / adrenal gland / vacuolization + systemic / …) is 1.25 mg/kg/day; in [5] (setting [23]) it was below 0.25 mg/kg/day; in data set [6] (setting [24]) it was 200 mg/kg/day; in [6] (setting [25]), 200 mg/kg/day; in data set [7] (setting [26]) it was 17.4 mg/kg/day. Also, the LOAEL in [1] (systemic / pathology microscopic / adrenal gland / inflammation + systemic / in life observation / body weight / body weight + systemic / in…) came out at 287 mg/kg/day; in data set [2] (setting [15]), 75 mg/kg/day; in data set [2] (setting [16]), 50 mg/kg/day; in data set [3] (setting [17]), 150 mg/kg/day; in data set [4] (systemic / pathology microscopic / adrenal gland / vacuolization), 19.8 mg/kg/day; in [5] (setting [21]), 250 mg/kg/day. For the same compound, the LOAEL turned out to be 250 mg/kg/day in [5] (setting [22]); 250 mg/kg/day in data set [5] (group: reproductive, reproductive / reproductive performance / fertility / fertility); 1000 mg/kg/day in data set [6] (setting [24]); 1000 mg/kg/day in data set [6] (setting [25]); 202 mg/kg/day in data set [7] (setting [27]). Besides, the NOAEL in [1] (systemic / pathology microscopic / adrenal gland / inflammation + systemic / pathology microscopic / adrenal gland / atypia nuclear) amounted to 38.3 mg/kg/day; in data set [2] (setting [15]), 50 mg/kg/day; in data set [2] (setting [16]) it was 25 mg/kg/day; in data set [3] (setting [17]), 25 mg/kg/day; in data set [4] (systemic / pathology microscopic / adrenal gland / vacuolization + systemic / clinical chemistry / alkaline phosphatase (alp/alk) / alkaline…), 2 mg/kg/day; in data set [5] (setting [21]) it was 37.5 mg/kg/day. The NOAEL was 37.5 mg/kg/day in data set [5] (setting [22]); 37.5 mg/kg/day in data set [5] (group: reproductive, reproductive / reproductive performance / fertility / fertility + reproductive / offspring survival early / birth index / live birth index…); 200 mg/kg/day in data set [6] (setting [24]); 200 mg/kg/day in data set [6] (setting [25]); 17.4 mg/kg/day in [7] (setting [26]).
As for `[O-][n+]1ccccc1[S-].[O-][n+]1ccccc1[S-].[Zn+2]` [Zinc pyrithione], the LEL in data set [8] (setting [28]) is 3 mg/kg/day; in data set [8] (setting [29]), 1.5 mg/kg/day; in data set [9] (setting [30]) it was 3 mg/kg/day; in data set [9] (setting [32]), 3 mg/kg/day; in data set [10], 1000 mg/kg/day. For the same compound, the LOAEL was above 3 mg/kg/day in [8] (setting [28]); 1.5 mg/kg/day in data set [8] (setting [29]); 3 mg/kg/day in data set [9] (setting [30]); 3 mg/kg/day in data set [9] (group: maternal, systemic / in life observation / body weight / body weight gain + systemic / in life observation / clinical signs / salivation); 1000 mg/kg/day in [10]. Also, the NEL in data set [8] (setting [28]) amounted to 1.5 mg/kg/day; in [8] (setting [29]) it was 0.5 mg/kg/day; in data set [9] (setting [31]), 0.75 mg/kg/day; in [9] (setting [32]) it was 0.75 mg/kg/day; in [10], 100 mg/kg/day. In addition, the NOAEL is at least 3 mg/kg/day in data set [8] (setting [28]); 0.5 mg/kg/day in [8] (setting [29]); 0.75 mg/kg/day in [9] (setting [31]); 0.75 mg/kg/day in [9] (setting [32]); 100 mg/kg/day in [10].
As for `OC[C@H]1O[C@@H]2O[C@H]3[C@H](O)[C@@H](O)[C@@H](O[C@H]4[C@H](O)[C@@H](O)[C@@H](O[C@H]5[C@H](O)[C@@H](O)[C@@H](O[C@H]6[C@H](O)[C@@H](O)[C@@H](O[C@H]7[C@H](O)[C@@H](O)[C@@H](O[C@H]1[C@H](O)[C@H]2O)O[C@@H]7CO)O[C@@H]6CO)O[C@@H]5CO)O[C@@H]4CO)O[C@@H]3CO` [alpha-Cyclodextrin], in data set [11], the LEL was found to be 13.2 mg/kg/day, the LOAEL was above 13.2 mg/kg/day, the NEL amounted to 6.5 mg/kg/day and the NOAEL is at least 13.2 mg/kg/day.
On to `CC1(C)[C@H](/C=C(\Cl)C(F)(F)F)[C@@H]1C(=O)O[C@@H](C#N)c1cccc(Oc2ccccc2)c1` [lambda-Cyhalothrin], for which the LEL in data set [12] (systemic / clinical chemistry / aminopyrine-n-demethylase / aminopyrine-n-demethylase + systemic / organ weight / liver / absolute) amounted to 2.5 mg/kg/day. In addition, in [12] (setting [33]), the LOAEL was 12.5 mg/kg/day, the NEL is 0.5 mg/kg/day and the NOAEL stood at 2.5 mg/kg/day. In [13] (setting [34]), the NEL was found to be 0.1 mg/kg/day and the NOAEL was determined as 0.1 mg/kg/day. In data set [13] (setting [35]), the LEL stood at 0.5 mg/kg/day and the LOAEL is 0.5 mg/kg/day.

The record behind these values is EPA's ToxRefDB 2.
